According to BigSolDB 2.1:

CO[C@H]1/C=C/O[C@@]2(C)Oc3c(C)c(O)c4c(O)c(c(/C=N/N5CCN(C6CCCC6)CC5)c(O)c4c3C2=O)NC(=O)/C(C)=C\C=C\[C@H](C)[C@H](O)[C@@H](C)[C@@H](O)[C@@H](C)[C@H](OC(C)=O)[C@@H]1C
solubility (mole fraction)
Conditions	278.15 K	283.15 K	288.15 K	293.15 K	297.15 K	303.15 K	308.15 K	313.15 K	318.15 K	323.15 K
in acetone	0.000523	0.00053	0.000536	0.000549	0.000563	0.000576	0.000609	0.000635	0.000668	0.000701
in chloroform	0.0254	0.0265	0.0281	0.0287	0.0293	0.0299	0.0308	0.0316	0.0326	0.0334
in dichloromethane	0.0159	0.0165	0.0175	0.0184	0.0196	0.0209	0.0224	–	–	–
in ethanol	0.000515	0.000525	0.000541	0.000562	0.000583	0.000604	0.000625	0.000651	0.000677	0.000703
in methanol	0.022	0.0224	0.0229	0.0235	0.0242	0.0249	0.0257	0.0267	0.0278	0.029
